# Source: US11993604B2, “Substituted pyrazolo[4,3-H]quinazolines as protein kinase inhibitors” (SHENGKE PHARMACEUTICALS (JIANGSU) LTD., priority 2017, dated 2024)
# How the values were obtained:
# CDK6/cyclin D1 = CDK6/cyclin D1 (Homo sapiens, UniProt Q00534); assay: Biochemical kinase inhibition test, CDK6/cyclin D1 (similar method); settings: for IC50: three-fold serial dilution from 10 μM, 10 μM ATP, read-out: CDK6/D1 (nM), enzyme inhibitory activity IC50; for selectivity for CDK6/cyclin D1 relative to CDK4/cyclin D1 (enzyme inhibitory activity): CDK6/cyclin D1 versus CDK4/cyclin D1
# Sequence of CDK6/cyclin D1 (Q00534 whole entry, species assumed): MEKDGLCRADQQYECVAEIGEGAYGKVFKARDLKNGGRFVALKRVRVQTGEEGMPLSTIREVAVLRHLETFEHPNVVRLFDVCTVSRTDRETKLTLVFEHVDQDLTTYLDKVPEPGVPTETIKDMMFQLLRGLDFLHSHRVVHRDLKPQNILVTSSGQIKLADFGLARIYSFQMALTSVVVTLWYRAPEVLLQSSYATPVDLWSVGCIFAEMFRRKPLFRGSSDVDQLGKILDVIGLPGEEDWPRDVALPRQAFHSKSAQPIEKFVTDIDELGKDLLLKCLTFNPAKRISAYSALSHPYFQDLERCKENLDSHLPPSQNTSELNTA
# Sequence of CDK6/cyclin D1 (P24385 whole entry partner, species assumed): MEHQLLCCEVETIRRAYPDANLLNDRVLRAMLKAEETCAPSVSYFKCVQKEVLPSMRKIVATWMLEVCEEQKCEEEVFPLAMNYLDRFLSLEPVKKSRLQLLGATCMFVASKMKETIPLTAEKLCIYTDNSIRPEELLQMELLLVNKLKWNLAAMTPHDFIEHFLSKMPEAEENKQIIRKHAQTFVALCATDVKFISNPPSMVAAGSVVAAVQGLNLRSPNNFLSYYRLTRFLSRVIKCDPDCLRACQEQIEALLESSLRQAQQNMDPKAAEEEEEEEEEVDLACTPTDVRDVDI
# Method: Potency determination of biochemical kinase inhibition test. Kinase activity test and IC50 determination. Firstly, 10 ng of recombinant CDK4/Cyclin D1 (Life Technologies PV4204) was diluted in kinase buffer (20 mM Tris pH 7.5, 10 mM MgCl2, 0.01% NP-40, 2 mM DTT), and was incubated with inhibitors at the indicated concentration at room temperature for 30 minutes. The kinase reaction was initiated by adding […] (1.5 μM) of recombinant retinoblastoma protein, 5 μM ATP and 10μ Ci γ-32P-ATP. The reaction was incubated at 30° C. for 20 minutes, and was terminated by adding 2× Laemmli sample buffer, heated at 95° C. for three minutes, and the resulting solution was dissolved with 12% acrylamide SDS-PAGE and autoradiographed. A densitometer (Bio-Rad) was used to quantify the corresponding phosphorylated substrate protein bands. The resulting density values were plotted as a function of the log drug concentration using Prism 4 Graphpad software. IC50 values were determined by plotting a non-linear regression curve with a variable slope.
# The inhibitory activity of the compounds disclosed herein against CDK6/cyclin D1 was tested by a similar method.
# The compounds were tested in a three-fold serial dilution from the starting concentration of 10 μM, over 10-fold of IC50. The control compound, staurosporine, was tested in a four-fold serial dilution from the starting concentration of 20 μM, over 10-fold of IC50. These reactions took place in the presence of 10 μM ATP.
# [1] = target: T1, recombinant CDK4/Cyclin D1 (Homo sapiens, UniProt P11802); assay: Biochemical kinase inhibition test, CDK4/Cyclin D1 (32P-ATP, retinoblastoma protein substrate); settings: three-fold serial dilution from 10 μM; 10 μM ATP; read-out: CDK4/D1 (nM), enzyme inhibitory activity IC50
# T1 construct: purchased Life Technologies PV4204
# T1 sequence (P11802 whole entry): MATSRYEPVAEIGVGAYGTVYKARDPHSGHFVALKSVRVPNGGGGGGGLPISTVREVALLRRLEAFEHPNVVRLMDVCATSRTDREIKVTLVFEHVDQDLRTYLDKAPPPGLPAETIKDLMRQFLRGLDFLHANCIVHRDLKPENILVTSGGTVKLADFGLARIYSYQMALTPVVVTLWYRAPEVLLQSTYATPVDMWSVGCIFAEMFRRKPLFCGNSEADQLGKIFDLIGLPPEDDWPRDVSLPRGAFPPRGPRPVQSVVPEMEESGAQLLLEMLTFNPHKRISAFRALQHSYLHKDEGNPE
# T1 sequence (P24385 whole entry partner): as the sequence (P24385 whole entry partner, species assumed) above
SMILES,IC50 (CDK6/cyclin D1),IC50 [1],selectivity for CDK6/cyclin D1 relative to CDK4/cyclin D1 (enzyme inhibitory activity) (CDK6/cyclin D1)
CC(C)n1ncc2ccc3cnc(Nc4ccc(N5CCC6(CCNCC6)C5)cn4)nc3c21 [Compound I-27],20 to 50 nM,20 to 50 nM,
Cc1cc(Nc2ncc3ccc4cnn(C(C)C)c4c3n2)ncc1N1CCS(=O)(=O)CC1 [Compound I-29],20 to 50 nM,20 to 50 nM,
CC(C)n1ncc2ccc3cnc(N4CCC[C@@H]4c4cccc(F)c4)nc3c21 [Compound I-33],50 to 100 nM,50 to 100 nM,
Cc1nc(Nc2ncc3ccc4cnn(C5CCCC5)c4c3n2)ccc1N1CCNCC1 [Compound I-37],< 1 nM,1 to 5 nM,
CN1CCN(c2ccc(Nc3ncc4ccc5cnn(C6CCCC6)c5c4n3)nc2)CC1 [Compound I-38],5 to 10 nM,1 to 5 nM,
CCN1CCN(c2cnc(Nc3ncc4ccc5cnn(C6CCCC6)c5c4n3)cc2C)CC1 [Compound I-41],10 to 20 nM,10 to 20 nM,
Cc1cc(Nc2ncc3ccc4cnn(C5CCCC5)c4c3n2)ncc1N1CCOCC1 [Compound I-44],10 to 20 nM,10 to 20 nM,
CCN1CCN(c2cnc(Nc3ncc4ccc5cnn(CC)c5c4n3)cc2C)CC1 [Compound I-49],10 to 20 nM,20 to 50 nM,about 2 times
CCn1ncc2ccc3cnc(Nc4ccc(N5CCOCC5)cn4)nc3c21 [Compound I-50],5 to 10 nM,10 to 20 nM,about 3 times
CCn1ncc2ccc3cnc(Nc4cc(C)c(N5CCOCC5)cn4)nc3c21 [Compound I-52],10 to 20 nM,10 to 20 nM,
Cl.Fc1cc(Nc2ncc3ccc4cnn(C5CC5)c4c3n2)ncc1N1CCNCC1 [Compound I-54],10 to 20 nM,20 to 50 nM,about 2 times
Cc1cc(Nc2ncc3ccc4cnn(C5CC5)c4c3n2)ncc1N1CCN(C)CC1 [Compound I-55],10 to 20 nM,20 to 50 nM,about 2 times
Cc1cc(Nc2ncc3ccc4cnn(C5CC5)c4c3n2)ncc1N1CCOCC1 [Compound I-59],10 to 20 nM,10 to 20 nM,
CC(C)n1ncc2c(Br)cc3cnc(Nc4ccc(N5CCNCC5)cn4)nc3c21 [Compound I-61],10 to 20 nM,10 to 20 nM,
CC(C)n1ncc2c(Br)cc3cnc(Nc4cc(F)c(N5CCNCC5)cn4)nc3c21.Cl [Compound I-62],10 to 20 nM,20 to 50 nM,about 2 times
CC(C)n1ncc2c(Br)cc3cnc(Nc4ccc(N5CCN(C)CC5)cn4)nc3c21 [Compound I-63],10 to 20 nM,10 to 20 nM,
CC(C)n1ncc2c(Br)cc3cnc(Nc4ccc(N5CCOCC5)cn4)nc3c21 [Compound I-65],10 to 20 nM,10 to 20 nM,
Cc1cc2cnc(Nc3ccc(N4CCNCC4)cn3)nc2c2c1cnn2C(C)C.Cl [Compound I-66],1 to 5 nM,10 to 20 nM,about 3 times
Cc1cc2cnc(Nc3cc(F)c(N4CCNCC4)cn3)nc2c2c1cnn2C(C)C.Cl [Compound I-67],10 to 20 nM,20 to 50 nM,about 2 times
CCN1CCN(c2ccc(Nc3ncc4cc(C)c5cnn(C(C)C)c5c4n3)nc2)CC1 [Compound I-69],1 to 5 nM,10 to 20 nM,
CC(C)n1ncc2c(C#N)cc3cnc(Nc4cc(F)c(N5CCNCC5)cn4)nc3c21.Cl [Compound I-72],10 to 20 nM,20 to 50 nM,about 2 times
CCN1CCN(c2ccc(Nc3ncc4cc(C#N)c5cnn(C(C)C)c5c4n3)nc2)CC1 [Compound I-73],1 to 5 nM,10 to 20 nM,about 3 times
CC(C)n1ncc2c(C#N)cc3cnc(Nc4ccc(N5CCOCC5)cn4)nc3c21 [Compound I-74],1 to 5 nM,10 to 20 nM,about 3 times
CC(=O)c1cc2cnc(Nc3ccc(N4CCNCC4)cn3)nc2c2c1cnn2C(C)C [Compound I-75],< 1 nM,1 to 5 nM,

# Other lines, results leading:
IC50 (CDK6/cyclin D1),IC50 [1],selectivity for CDK6/cyclin D1 relative to CDK4/cyclin D1 (enzyme inhibitory activity) (CDK6/cyclin D1),SMILES
10 to 20 nM,10 to 20 nM,,CC(C)n1ncc2ccc3cnc(Nc4ccc(N5CCS(=O)(=O)CC5)cn4)nc3c21 [Compound I-28]
10 to 20 nM,10 to 20 nM,,Cc1nc(Nc2ncc3ccc4cnn(C(C)C)c4c3n2)ccc1N1CCS(=O)(=O)CC1 [Compound I-30]
50 to 100 nM,50 to 100 nM,,CC(C)n1ncc2ccc3cnc(Nc4ccc(C(=O)N5CCC(N6CCN(C)CC6)CC5)cn4)nc3c21 [Compound I-31]
20 to 50 nM,20 to 50 nM,,COc1ccc2cc(Nc3ncc4ccc5cnn(C(C)C)c5c4n3)ccc2n1 [Compound I-32]
50 to 100 nM,50 to 100 nM,,CC(C)n1ncc2ccc3cnc(N4CCC[C@@H]4c4cc(F)ccc4F)nc3c21 [Compound I-34]
1 to 5 nM,1 to 5 nM,,c1cc(Nc2ncc3ccc4cnn(C5CCCC5)c4c3n2)ncc1N1CCNCC1 [Compound I-35]
10 to 20 nM,10 to 20 nM,,Cc1cc(Nc2ncc3ccc4cnn(C5CCCC5)c4c3n2)ncc1N1CCNCC1 [Compound I-36]
1 to 5 nM,< 1 nM,,CCN1CCN(c2ccc(Nc3ncc4ccc5cnn(C6CCCC6)c5c4n3)nc2)CC1 [Compound I-39]
1 to 5 nM,1 to 5 nM,,CCN1CCN(c2ccc(Nc3ncc4ccc5cnn(C6CCCC6)c5c4n3)nc2C)CC1 [Compound I-40]
1 to 5 nM,1 to 5 nM,,c1cc(Nc2ncc3ccc4cnn(C5CCCC5)c4c3n2)ncc1N1CCOCC1 [Compound I-42]
1 to 5 nM,1 to 5 nM,,Cc1nc(Nc2ncc3ccc4cnn(C5CCCC5)c4c3n2)ccc1N1CCOCC1 [Compound I-43]
5 to 10 nM,10 to 20 nM,about 3 times,CCn1ncc2ccc3cnc(Nc4ccc(N5CCNCC5)cn4)nc3c21.Cl [Compound I-45]
10 to 20 nM,20 to 50 nM,about 2 times,CCn1ncc2ccc3cnc(Nc4cc(F)c(N5CCNCC5)cn4)nc3c21.Cl [Compound I-46]
5 to 10 nM,10 to 20 nM,about 2 times,CCn1ncc2ccc3cnc(Nc4ccc(N5CCNCC5)c(F)n4)nc3c21.Cl [Compound I-47]
5 to 10 nM,10 to 20 nM,about 3 times,CCN1CCN(c2ccc(Nc3ncc4ccc5cnn(CC)c5c4n3)nc2)CC1 [Compound I-48]
10 to 20 nM,20 to 50 nM,about 2 times,CCn1ncc2ccc3cnc(Nc4cc(C)c(N5CCN(C)CC5)cn4)nc3c21 [Compound I-51]
5 to 10 nM,10 to 20 nM,about 2 times,Cl.c1cc(Nc2ncc3ccc4cnn(C5CC5)c4c3n2)ncc1N1CCNCC1 [Compound I-53]
5 to 10 nM,10 to 20 nM,about 3 times,CCN1CCN(c2ccc(Nc3ncc4ccc5cnn(C6CC6)c5c4n3)nc2)CC1 [Compound I-56]
10 to 20 nM,10 to 20 nM,,CCN1CCN(c2cnc(Nc3ncc4ccc5cnn(C6CC6)c5c4n3)cc2C)CC1 [Compound I-57]
5 to 10 nM,10 to 20 nM,about 3 times,c1cc(Nc2ncc3ccc4cnn(C5CC5)c4c3n2)ncc1N1CCOCC1 [Compound I-58]
10 to 20 nM,10 to 20 nM,,CC1CN(c2ccc(Nc3ncc4ccc5cnn(C6CC6)c5c4n3)nc2)CCO1 (centres unmarked) [Compound I-60]
10 to 20 nM,10 to 20 nM,,CCN1CCN(c2ccc(Nc3ncc4cc(Br)c5cnn(C(C)C)c5c4n3)nc2)CC1 [Compound I-64]
1 to 5 nM,10 to 20 nM,,Cc1cc2cnc(Nc3ccc(N4CCN(C)CC4)cn3)nc2c2c1cnn2C(C)C [Compound I-68]
10 to 20 nM,10 to 20 nM,,Cc1cc2cnc(Nc3ccc(N4CCOCC4)cn3)nc2c2c1cnn2C(C)C [Compound I-70]
1 to 5 nM,10 to 20 nM,about 3 times,CC(C)n1ncc2c(C#N)cc3cnc(Nc4ccc(N5CCNCC5)cn4)nc3c21.Cl [Compound I-71]
5 to 10 nM,10 to 20 nM,about 2 times,CC(=O)c1cc2cnc(Nc3cc(F)c(N4CCNCC4)cn3)nc2c2c1cnn2C(C)C.Cl [Compound I-76]
< 1 nM,5 to 10 nM,,CC(=O)c1cc2cnc(Nc3ccc(N4CCN(C)CC4)cn3)nc2c2c1cnn2C(C)C [Compound I-77]
